In patent publication US6933310B1, “Therapeutic agent for amyotrophic lateral sclerosis (ALS)” (Mitsubishi Pharma Corporation, priority 2000, dated 2005):

Legend:
ALS = conditions: some reported test results; cited from earlier work
Wobbler mice [1] = test: Forelimb deformity grading in Wobbler mice; type: in vivo, mouse; conditions: 10 mg/kg orally, 4 weeks, vs control group (FIG. 1)
From the text: (§1) Wobbler mice (Ikeda K. et al., Ann. Neurol. vol. 34, p304, 1993; Mitsumoto H. et al., Ann. Neurol. vol. 36, pp142 to 148, 1994; Mitsumoto H. et al., Science, vol. 265, pp1107 to 1110, 1994) were used.
(§2) At 3 to 4 weeks old, with the development of the symptom of body tremors, Wobbler mice were diagnosed with the onset of the disease. Immediately after being diagnosed to have the beginnings of the disease, the mice were orally administered with the drug of the present invention (3-methyl-1-phenyl-2-pirazoline-5-on; also referred to as MCI-186 in the drawings) (10 mg/kg), and the mice of a control group were administered with vehicles, by a blind test continually for 4 weeks. The administration of the drug was completed at 7 to 8 weeks old after birth, and the test was conducted with n=10 for each test group.
The degree of forelimb deformity was classified into four grades: 1 (paw atrophy), 2 (curled digits), 3 (curled wrists), and 4 (forelimb flexion to chest), and then evaluated. The progress from 1 to 4 means that the symptom became worse.
The scale of the degree of forelimb deformity was analyzed by the non-parametric Wilcoxon signed rank-sum test. Muscle strength, weight of biceps muscle, mean diameter of muscle fibers and number of motor neurons were statistically analyzed by unpaired Student's t-test. In all tests, the significance level of 5% was set for both sides.

Wobbler mice [2] = test: Forelimb grip strength in Wobbler mice; type: in vivo, mouse; conditions: 10 mg/kg orally, 4 weeks, vs control group (FIG. 2)
From the text: as §1
as §2, with “The administration of the drug was completed at 7 to 8 weeks old after birth, and the test was conducted with n=10 for each test group.” left out
The grip strength of the forelimb was measured (Ikeda et al., Neuromusc. Disord., 5, (1995), 383–390; K. Ikeda et al., J. Neurol. Sci., 160, (1998) 9–15; K. Ikeda et al., Neurosci. Lett., 250 (1998) 9–12; K. Ikeda et al., Muscle Nerve, 18 (1995) 1344–1347; K. Ikeda et al., Neurol. Res., 17 (1995) 445–448; K. Ikeda et al., Ann. Neurol., 37 (1995) 505–511; K. Ikeda et al., Brain Res., 726 (1996) 91–97; H. Mitsumoto et al., Ann. Neurol., 36 (1994) 142–148; and H. Mitsumoto et al., Science, 265 (1994) 1107–1110). […]
The scale of the degree of forelimb deformity was analyzed by the non-parametric Wilcoxon signed rank-sum test. […]

Wobbler mice [3] = test: Weight and morphology of right brachial biceps muscle in Wobbler mice; type: in vivo, mouse; conditions: 10 mg/kg orally, 4 weeks
From the text: as §1, §2
After the end of drug administration, Wobbler mice (n=10 per group) were ether anesthetized, and then the right brachial biceps muscles were excised under dissecting microscope. The excised biceps muscles were correctly measured, and then frozen. […]
(§3) The scale of the degree of forelimb deformity was analyzed by the non-parametric Wilcoxon signed rank-sum test. Muscle strength, weight of biceps muscle, mean diameter of muscle fibers and number of motor neurons were statistically analyzed by unpaired Student's t-test. […]

Wobbler mice [4] = test: Number of spinal motor neurons in Wobbler mice; type: in vivo, mouse; conditions: 10 mg/kg orally, 4 weeks, cervical spinal cord C5-6, vs control group (FIG. 4)
From the text: as §1, §2
Wobbler mice (n=10 per group) that had been used for morphological study on the right brachial biceps muscles were perfused via an intracardiac catheter with phosphate buffered saline, and then 4% paraformaldehyde/1% glutaraldehyde/0.1 M sodium phosphate buffer (pH 7.4). […]
as §3

mouse = conditions: intraabdominal administration; cited from earlier work
[5] = National Cancer Institute Report, 89, 1978; cited from earlier work
ALS patients = conditions: administered intraspinally to ALS patients; cited from earlier work

## Nc1nc2ccc(OC(F)(F)F)cc2s1 [riluzole]
ALS
  effectiveness against ALS: effectiveness against ALS could not be confirmed

## CC1=NN(c2ccccc2)C(=O)C1 [3-methyl-1-phenyl-2-pirazoline-5-on]
Wobbler mice [1]
  degree of forelimb deformity (Grades 1 to 4): the progress of muscle deformity was delayed
Wobbler mice [2]
  muscle strength of the forelimb (grip strength): the decrease in muscle strength was delayed
Wobbler mice [3]; right brachial biceps, P<0.01 vs control 16.8±0.6 μm
  mean diameter of muscle fibers (mean±SEM): 20.3±0.8 μm
Wobbler mice [3]; vs control group (FIG. 3)
  weight of the right brachial biceps muscle: significantly increased
Wobbler mice [4]
  number of spinal motor neurons: increased
mouse
  LD50: 2012 mg/kg
[5]
  carcinogenicity: noncarcinogenicity

## human recombinant Cu/Zn SOD: human recombinant Cu/Zn superoxide dismutase administered intraspinally to ALS patients
ALS patients
  therapeutic effect in ALS patients: effective therapeutic effects were not obtained
